Test results reported in PubChem BioAssay (NCI).
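These data come from cells grown in 96-well plates and exposed to compound for 48 hours at five concentrations. TGI: concentration producing complete growth inhibition.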

Key:
Test in all cases: NCI-60 cell line screen, 48 h
[1] = test system: DMS 114 small cell lung
[2] = test system: M19-MEL melanoma
[3] = test system: LXFL 529 NSCLC
[4] = test system: SNB-78 CNS
[5] = test system: HOP-18 NSCLC
[6] = test system: XF 498 CNS
[7] = test system: RXF-631 renal

Measured: TGI

CN1C(=O)CN2C(Cl)(Cl)C2(c2ccccc2)c2cc(Cl)ccc21 (stereo not given)
> 100 µM: [1] | [2] | [3]

CCCCCCCCCC/C=C/C=O
not listed: [7]
> 100 µM: all other assays above

C=CC(=O)NCNC(=O)C=C
not listed: [4] | [7]
> 100 µM: all other assays above

O=[N+]([O-])c1ccc(CN=C2NNS(=O)(=O)c3ccccc32)cc1
not listed: [5]
> 100 µM: all other assays above
